This is an account of results in patent publication US12240858B2 (ANBOGEN THERAPEUTICS, INC, priority 2021, dated 2025).

Data set [1] is described as follows: Weight loss before melting (TGA) of solid forms. The format is physicochemical.
Data set [2] in a line: Solubility 24 hrs in FaSSIF, FeSSIF, SGF, H2O. The format is physicochemical. The settings on record: thermodynamic from solid. The text has this: In Table 3, “FaSSIF” stands for “Fasted state simulated intestinal fluid”; “FeSSIF” stands for “Fed state simulated intestinal fluid”; “SGF” stands for “Simulated gastric fluid”.
Data set [3] is described as follows: Stability of solid forms under stress conditions. The format is physicochemical.
The nature of data set [4]: Pharmacokinetics study, rat IV and PO. The format is in vivo.
The mark [5] stands for this setting: FeSSIF (fed state simulated intestinal fluid), fessif.
Where [6] appears, read: SGF (simulated gastric fluid), simulated gastric fluid, SGF.
The mark [7] stands for this setting: 20 mg/kg, listed as ABT-101 S0*.

Molecules are shown by their SMILES. ≈ marks a conversion by molar mass, not a printed value. Counter-ions that a name gives are not always drawn. Like-named read-outs stand apart in the source and are kept apart here. Bounds are passed on as bounds.

For the molecule `CN(C)C/C=C/C(=O)Nc1cccc(-c2c(-c3ccccc3)oc3ncnc(N[C@H](CO)c4ccccc4)c23)c1` [Free Base, (S, E)-4-(dimethylamino)-N-(3-(4-(2-hydroxy-1-phenylethylamino)-6-phenylfuro[2,3-d]pyrimidin-5-yl)phenyl)but-2-enamide], the “Weight loss before melting (%) (TGA)” value in data set [1] was determined as 0.6 wt %. Moreover, the solubility (in general, the concentration that dissolves in the medium under given conditions) at 24 h was 320 µg/mL (≈ 600 µM) in data set [2] (FaSSIF (fasted state simulated intestinal fluid), fassif); 410 µg/mL (≈ 768 µM) in data set [2] (setting [5]); 9100 µg/mL (≈ 17100 µM) in data set [2] (setting [6]); 20 µg/mL (≈ 37.5 µM) in data set [2] (water, H2O). The Stability result in data set [3] (25° C./60% RH, 1 week) was “Stable”; in data set [3] (40° C./75% RH, 1 week), “Stable”; in data set [3] (80° C., 24 hrs), “Stable”.

For `CN(C)C/C=C/C(=O)Nc1cccc(-c2c(-c3ccccc3)oc3ncnc(NC(CO)c4ccccc4)c23)c1` (stereo not drawn) [Glycollate], the “Weight loss before melting (%) (TGA)” value in data set [1] is 0.7 wt %. Further, the results for the solubility at 24 h in data set [2] (setting [5]) and in data set [2] (setting [6]) were more than 11300 µg/mL and more than 10900 µg/mL, respectively. In addition, the Stability result in data set [3] (25° C./60% RH, 1 week) is “Stable”; in data set [3] (40° C./75% RH, 1 week) it was “Unstable”; in data set [3] (80° C., 24 hrs) it was “Stable”.

As to `CN(C)C/C=C/C(=O)Nc1cccc(-c2c(-c3ccccc3)oc3ncnc(NC(CO)c4ccccc4)c23)c1` (stereo not drawn) [Hydrochloride], the “Weight loss before melting (%) (TGA)” value in data set [1] is listed as 3.6 wt %. For the same molecule, the Stability entry in data set [3] (25° C./60% RH, 1 week) was “Stable”; in data set [3] (40° C./75% RH, 1 week) it was “Stable”; in data set [3] (80° C., 24 hrs) it was “Stable”.

As for `CN(C)C/C=C/C(=O)Nc1cccc(-c2c(-c3ccccc3)oc3ncnc(NC(CO)c4ccccc4)c23)c1` (stereo not drawn) [Succinate], the “Weight loss before melting (%) (TGA)” value in data set [1] is recorded as 0.5 wt %. Further, the Stability result in data set [3] (25° C./60% RH, 1 week) was “Stable”; in data set [3] (40° C./75% RH, 1 week), “Unstable”; in data set [3] (80° C., 24 hrs), “Stable”.

Regarding `CN(C)C/C=C/C(=O)Nc1cccc(-c2c(-c3ccccc3)oc3ncnc(N[C@H](CO)c4ccccc4)c23)c1` [ABT-101 S0, (S, E)-4-(dimethylamino)-N-(3-(4-(2-hydroxy-1-phenylethylamino)-6-phenylfuro[2,3-d]pyrimidin-5-yl)phenyl)but-2-enamide], the “increased Cmax, AUC and F (%) compared to amorphous form (ABT-101 S0)” value in data set [4] is 1.9˜3 times. In data set [4] (20 mg/kg), the maximum concentration (Cmax) (usually the peak of the concentration-time curve) was 136 ng/mL and the “F (%)” value came out at 19%. For the same molecule, in data set [4] (setting [7]), the Cmax came to 508 ng/mL, the “F (%)” value was 42% and the Tmax (commonly the time from dosing to the highest level) was found to be 3.3 h. Further, in data set [4] (rat, in vivo, po, 20 mg/kg), the half-life (usually how long it takes for the measured level to halve) is 4.7 h. The Tmax in data set [4] (rat, in vivo, po, 20 mg/kg, read-out: Tmax) was 4 h.
